Positions count from the first letter of the chain named.
How the values were obtained:
Assay in all cases: Kinetic assays of purified pNB esterase (ester hydrolysis)
Type in all cases: biochemical
Details in all cases: 0.1M PIPES pH 7.0, 30° C.
[1] = target: T1, Bacillus subtilis para-nitrobenzyl esterase variant 1-1H9 (incl. Y370F), SEQ. ID. NO. 4 (Bacillus subtilis, UniProt P37967, H322R/Y370F)
T1 sequence (P37967 1-489 K23L/S59P/K95Q/N150D/S230A/G242S/K246R/S251A/A291S/H322R/V343A/Y370F/K390E/L463V): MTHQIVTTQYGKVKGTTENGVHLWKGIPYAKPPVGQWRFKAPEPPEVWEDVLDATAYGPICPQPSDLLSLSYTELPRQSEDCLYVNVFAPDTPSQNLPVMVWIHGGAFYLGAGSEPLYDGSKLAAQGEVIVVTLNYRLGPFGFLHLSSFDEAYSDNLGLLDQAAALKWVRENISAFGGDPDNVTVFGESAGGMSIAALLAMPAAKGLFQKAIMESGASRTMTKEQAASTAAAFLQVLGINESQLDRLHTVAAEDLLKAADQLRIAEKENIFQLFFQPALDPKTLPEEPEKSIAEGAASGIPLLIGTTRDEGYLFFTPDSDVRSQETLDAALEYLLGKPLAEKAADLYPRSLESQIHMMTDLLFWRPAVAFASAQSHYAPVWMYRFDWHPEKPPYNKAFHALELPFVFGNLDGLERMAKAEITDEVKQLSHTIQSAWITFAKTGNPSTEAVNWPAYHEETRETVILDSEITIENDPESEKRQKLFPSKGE
Experimental: Bacteria expressing seven pNB esterases, 0-WT (SEQ. ID. NO. 2), 1-1H9, 2-19E10, 3-10C4, 4-38B9, 4-43E7, and 4-54B9, were grown in one liter cultures and the enzymes were purified. These purified enzymes were assayed for their ability to hydrolyze the different ester substrates in the presence of various concentrations of DMF.
The effects on kcat, however, are more prominent: kcat increases more than 9-fold from wild type to 4-54B9 in 15% DMF, while KM decreases by less than a factor of two on LCN-pNB. […] These improvements are obviously the most useful for enzymes intended to be used for transformations in high substrate concentrations.
(§1) Kinetic assays were performed on three substrates: pNPA, LCN-pNP, and p-nitrobenzyl loracarbef nucleus (LCN-pNB). For pNPA and LCN-pNP substrates, final concentrations varying from 0.0625 mM to 16 mM and 0, 15, and 30% DMF in 0.1M PIPES (Sigma), pH 7.0 were combined with equal volumes of enzyme samples. These samples were mixed simultaneously in a 96 well plate and monitored with the 96 well plate reader. The absorbance values were recorded, linearly regressed, and then used for calculating kinetic parameters. For the LCN-pNB substrate, final concentrations varying from 0.0156 mM to 8.0 mM and 0, 15 and 30% DMF in PIPES, pH 7.0 were combined with enzyme samples in a quartz cuvette and were measured in a spectrophotometer at 289 nm. All assays were measured in triplicate.

[2] = target: T2, Bacillus subtilis para-nitrobenzyl esterase (pNB esterase), wild type 0-WT, SEQ. ID. NO. 2 (Bacillus subtilis, UniProt P37967); set-up: unit not given beside the values
T2 sequence (P37967 1-489 K23L/S59P/K95Q/N150D/S230A/G242S/K246R/S251A/A291S/V343A/K390E/L463V): T1 sequence (P37967 1-489 K23L/S59P/K95Q/N150D/S230A/G242S/K246R/S251A/A291S/H322R/V343A/Y370F/K390E/L463V) with R322H, F370Y
Experimental: (§2) Bacteria expressing seven pNB esterases, 0-WT (SEQ. ID. NO. 2), 1-1H9, 2-19E10, 3-10C4, 4-38B9, 4-43E7, and 4-54B9, were grown in one liter cultures and the enzymes were purified. These purified enzymes were assayed for their ability to hydrolyze the different ester substrates in the presence of various concentrations of DMF. FIGS. 8a, b and c show the specific reaction rates on pNPA as a function of pNPA substrate concentration for this series of evolved variants from the four generations of mutagenesis and screening. […] The wild type enzyme outperforms 1-1H9 in purely aqueous buffer (FIG. 8a). The actual screening, however, was performed in the presence of DMF, and in 15 and 30% DMF, 1-1H9 has higher specific activity towards pNPA than wild type (FIGS. 8b and 8c). Similar trends are seen for the remaining variants assayed on this substrate. […] In 30% DMF, wild type drops still further relative to the pNB esterase variants. Variants 4-38B9 and 4-43E7, presumably by, virtue of having been screened in DMF for four rounds of mutagenesis, are the best performers in 30% DMF.
(§3) DMF dramatically increases KM while also decreasing kcat. For the LCN substrates, the mutations accumulated during directed evolution mitigate the increased KM. The effects on kcat, however, are more prominent: kcat increases more than 9-fold from wild type to 4-54B9 in 15% DMF, while KM decreases by less than a factor of two on LCN-pNB. […] At substrate concentrations […], increased specific activity will result mainly from improvements in kcat. These improvements are obviously the most useful for enzymes intended to be used for transformations in high substrate concentrations.
as §1

[3] = target: T3, Bacillus subtilis para-nitrobenzyl esterase variant 4-43E7 (3-10C4 substitutions + L334V and one further substitution), SEQ. ID. NO. 12 (Bacillus subtilis, UniProt P37967, H322R/L144M/L334V/M358V/S94G/Y370F); set-up: unit not given beside the values
T3 sequence (P37967 1-489 K23L/S59P/S94G/K95Q/L144M/N150D/S230A/G242S/K246R/S251A/A291S/H322R/L334V/V343A/M358V/Y370F/K390E/L463V): T1 sequence (P37967 1-489 K23L/S59P/K95Q/N150D/S230A/G242S/K246R/S251A/A291S/H322R/V343A/Y370F/K390E/L463V) with S94G, L144M, L334V, M358V
Experimental: as §2, §3, §1

[4] = target: T4, Bacillus subtilis para-nitrobenzyl esterase variant 4-54B9 (3-10C4 substitutions + L334S and one further substitution), SEQ. ID. NO. 14 (Bacillus subtilis, UniProt P37967, H322R/K267R/L144M/L334S/M358V/Y370F); set-up: unit not given beside the values
T4 sequence (P37967 1-489 K23L/S59P/K95Q/L144M/N150D/S230A/G242S/K246R/S251A/K267R/A291S/H322R/L334S/V343A/M358V/Y370F/K390E/L463V): T1 sequence (P37967 1-489 K23L/S59P/K95Q/N150D/S230A/G242S/K246R/S251A/A291S/H322R/V343A/Y370F/K390E/L463V) with L144M, K267R, L334S, M358V
Experimental: as §2, §3, §1

[5] = target: T5, Bacillus subtilis para-nitrobenzyl esterase variant 2-19E10 (1-1H9 substitutions + M358V), SEQ. ID. NO. 6 (Bacillus subtilis, UniProt P37967, H322R/M358V/Y370F); set-up: unit not given beside the values
T5 sequence (P37967 1-489 K23L/S59P/K95Q/N150D/S230A/G242S/K246R/S251A/A291S/H322R/V343A/M358V/Y370F/K390E/L463V): T1 sequence (P37967 1-489 K23L/S59P/K95Q/N150D/S230A/G242S/K246R/S251A/A291S/H322R/V343A/Y370F/K390E/L463V) with M358V
Experimental: as §2, §3, §1

[6] = target: T6, Bacillus subtilis para-nitrobenzyl esterase variant 3-10C4 (2-19E10 substitutions + L144M), SEQ. ID. NO. 8 (Bacillus subtilis, UniProt P37967, H322R/L144M/M358V/Y370F)
T6 sequence (P37967 1-489 K23L/S59P/K95Q/L144M/N150D/S230A/G242S/K246R/S251A/A291S/H322R/V343A/M358V/Y370F/K390E/L463V): T1 sequence (P37967 1-489 K23L/S59P/K95Q/N150D/S230A/G242S/K246R/S251A/A291S/H322R/V343A/Y370F/K390E/L463V) with L144M, M358V
Experimental: as §2, §3, §1

[7] = target: T7, Bacillus subtilis para-nitrobenzyl esterase variant 4-38B9 (3-10C4 substitutions + I60V), SEQ. ID. NO. 10 (Bacillus subtilis, UniProt P37967, H322R/I60V/L144M/M358V/Y370F)
T7 sequence (P37967 1-489 K23L/S59P/I60V/K95Q/L144M/N150D/S230A/G242S/K246R/S251A/A291S/H322R/V343A/M358V/Y370F/K390E/L463V): T1 sequence (P37967 1-489 K23L/S59P/K95Q/N150D/S230A/G242S/K246R/S251A/A291S/H322R/V343A/Y370F/K390E/L463V) with I60V, L144M, M358V
Experimental: as §2, §3, §1

[8] = substrate p-nitrobenzyl loracarbef nucleus, 0% DMF
[9] = substrate p-nitrobenzyl loracarbef nucleus, 15% DMF
[10] = substrate p-nitrophenyl loracarbef nucleus, 0% DMF
[11] = substrate p-nitrophenyl loracarbef nucleus, 15% DMF
[12] = substrate p-nitrophenyl loracarbef nucleus, 30% DMF

For NC1C(=O)N2C(C(=O)OCc3ccc([N+](=O)[O-])cc3)=C(Cl)CCC12 (centres unmarked) [p-nitrobenzyl loracarbef nucleus], the kcat [1, 8] was 1.94, the kcat [1, 9] was 0.69 and the kcat [2, 8] was 1.64. For the same molecule, the kcat [2, 9] was 0.54, the kcat [3, 8] was 9.13 and the kcat [3, 9] was 3.02. For the same molecule, the kcat [4, 8] was 18.96, the kcat [4, 9] was 6.84 and the kcat [5, 8] was 4.59. For the same molecule, the kcat [5, 9] was 1.81, the kcat [6, 8] was 6.53 and the kcat [6, 9] was 1.62. The kcat [7, 8] was 8.51 and the kcat [7, 9] was 1.89.

NC1C(=O)N2C(C(=O)Oc3ccc([N+](=O)[O-])cc3)=C(Cl)CCC12 (centres unmarked) [p-nitrophenyl loracarbef nucleus] showed a kcat [1, 10] of 0.08, a kcat [1, 11] of 0.07 and a kcat [1, 12] of 0.021. For the same molecule, the kcat [2, 10] was 0.14, the kcat [2, 11] was 0.10 and the kcat [2, 12] was 0.024. It also gave a kcat [3, 10] of 0.67, a kcat [3, 11] of 0.40 and a kcat [3, 12] of 0.094. For the same molecule, the kcat [4, 10] was 1.44, the kcat [4, 11] was 0.93 and the kcat [4, 12] was 0.141. For the same molecule, the kcat [5, 10] was 0.25, the kcat [5, 11] was 0.12 and the kcat [5, 12] was 0.023. It also gave a kcat [6, 10] of 0.35, a kcat [6, 11] of 0.21 and a kcat [6, 12] of 0.044. It also gave a kcat [7, 10] of 0.39, a kcat [7, 11] of 0.25 and a kcat [7, 12] of 0.067.
